Source: patent publication US20040030131A1, “Pharmaceutical compounds” (priority 2000, published 2004)

Row | SMILES | melting point
1 | COc1cccc2cc(C3=C(CN(C)C)C4CCC3C4)sc12.Cl (racemic) | 232 to 235 °C
2 | CNCC1=C(c2ccc3scc(C)c3c2)C2CCC(C1)C2.Cl (stereo not shown) | 204.5 to 206.7 °C
3 | Cc1cc2cc(C3=C(CN(C)C)C4CCC3C4)ccc2s1.Cl (racemic) | 179.5 to 181.6 °C
4 | CN(C)CC1=C(c2cccc3sccc23)C2CCC1C2 (racemic) [Example 15, (+/−)-((3-(Benzo[b]thiophen-4-yl)bicyclo[2.2.1]-hept-2-en-2-yl)methyl)dimethylamine] | 73.5 to 76.9 °C
5 | COc1cccc2sc(C3=C(CN(C)C)C4CCC3C4)cc12.Cl (racemic) | 239 to 242 °C

Other lines, results leading:

Row | melting point | SMILES
6 | 207.4 to 211.1 °C | CN(C)CC1=C(c2cc3cc(F)ccc3s2)C2CCC(C1)C2.Cl (racemic)
7 | 57.8 °C | CN(C)CC1=C(c2ccc3sccc3c2)C2CCC(C1)C2.Cl (stereo not shown)
